# Several values for one entry are separate records, joined by “and”; a condition that tells them apart may be missing. Identical values can stand only once. Like-named read-outs stand apart in the source and are kept apart here. Marks after values point to notes of the source that are not given here.
# Experiments:
# [1] = Drug interaction study of vibegron 75 mg and rifampin; type: in vivo, human
# QTc interval [2] = conditions: human, in vivo, 400 mg
# [3] = Multiple rising dose Phase 1 pharmacokinetics; type: in vivo, human
# Text: The steady state AUC geometric mean accumulation ratios were ˜2 in young male subjects and ˜2.8 in elderly subjects (male and female).
# Although exposures were similar in middle-aged males when compared to young males, plasma concentrations were higher in elderly compared to middle-aged and young subjects. […] Furthermore, the steady state AUC geometric mean accumulation ratios were ˜2 in young males and ˜2.8 in the elderly.
# QTc interval [4] = experiment: Thorough QT study, single oral doses; conditions: single dose 200 mg
# [5] = Vibegron + Rifampin 600 mg QD, single dose 75 mg, healthy adults
# [6] = Vibegron alone, single dose 75 mg, healthy adults
# [7] = elderly female subjects, 100 mg
# [8] = multiple dose 25 mg, after 14 days, healthy young males
# [9] = multiple dose 50 mg, after 14 days, Japanese healthy young males
# [10] = multiple dose 50 mg, after 14 days, healthy young males
# [11] = multiple dose 100 mg, after 14 days, Japanese healthy young males
# [12] = multiple dose 100 mg, after 14 days, elderly Japanese
# [13] = multiple dose 100 mg, after 14 days, elderly male and female
# [14] = multiple dose 100 mg, after 14 days, healthy young males
# [15] = multiple dose 150 mg, after 14 days, healthy young males
# [16] = multiple dose 150 mg, after 14 days, middle-aged female
# [17] = multiple dose 150 mg, after 14 days, middle-aged male
# [18] = multiple dose 200 mg, after 14 days, Japanese healthy young males
# [19] = multiple dose 200 mg, after 14 days, healthy young males
# [20] = multiple dose 300 mg, after 14 days, healthy young males
# [21] = multiple dose 400 mg, after 14 days, healthy young males
smiles,measurement,setting,value
"O=C(Nc1ccc(C[C@@H]2CC[C@H]([C@H](O)c3ccccc3)N2)cc1)[C@@H]1CCc2nccc(=O)n21 [Vibegron, (6S)—N-[4-[[(2S,5R)-5-[(R)-hydroxy(phenyl)methyl]pyrrolidin-2-yl]methyl]phenyl]-4-oxo-7,8-dihydro-6H-pyrrolo[1,2-a]pyrimidine-6-carboxamide]","CL/F, geometric mean (% CV)",[1]; [5],57.3 (30.1) L/hr
same,"V/F, geometric mean (% CV)",[1]; [5],6140 (47.0) L
same,"t1/2, geometric mean (% CV)",[1]; [5],74.2 (25.2) h
same,"CL/F, geometric mean (% CV)",[1]; [6],57.2 (39.7) L/hr
same,"V/F, geometric mean (% CV)",[1]; [6],6930 (48.6) L
same,tolerability,"[1]; vibegron 75 mg and rifampin, healthy male and female subjects",well tolerated
same,subjects with an AE related to study drug,"[1]; vibegron 75 mg single doses and rifampin 600 mg QD, 3 of 20 subjects",15%
same,"AUC, mean ± SD",QTc interval [2],6800 ± 2300 ng·h/mL
same,"steady state Cmax, elderly compared to young males",[3]; 100 mg QD,~1.3 fold
same,"fe0-24 hr,ss","[3]; 100 mg, elderly subjects",~17%
same,"fe0-24 hr,ss","[3]; 100 and 150 mg, young males",~14%
same,steady state AUC higher in middle-aged females vs middle-aged males,[3]; 100 or 150 mg,~1.5 fold
same,steady state exposure (AUC0-24) higher in elderly Japanese vs elderly non-Japanese,[3]; Day 14,35%
same,steady state AUC0-24 hr,[3]; [7],2620 ng·h/mL
same,steady state Cmax,[3]; [7],278 ng/mL
same,renal clearance (CLR) at steady state,[3]; elderly subjects (male and female),127 mL/min
same,AUC0-24,"[3]; human, plasma, oral, multiple dose 150 mg, after 14 days, middle-aged female, read-out: AUC0-24",3180 ± 925 ng·h/mL
same,steady state exposures higher in Japanese vs non-Japanese young males,[3]; multiple dose,~30%
same,AUC0-24,[3]; [8],164 ± 25.9 ng·h/mL
same,Cmax,[3]; [8],15.6 ± 6.93 ng/mL
same,t1/2 (harmonic mean ± pseudo SD),[3]; [8],94.0 ± 9.60 h
same,AUC0-24,[3]; [9],613 ± 296 ng·h/mL
same,Cmax,[3]; [9],56.9 ± 34.2 ng/mL
same,t1/2 (harmonic mean ± pseudo SD),[3]; [9],69.4 ± 6.6 h
same,AUC0-24,[3]; [10],507 ± 176 ng·h/mL
same,Cmax,[3]; [10],41.5 ± 12.3 ng/mL
same,Ctrough,[3]; [10],15.2 ± 5.07 ng/mL
same,t1/2 (harmonic mean ± pseudo SD),[3]; [10],77.2 ± 8.9 h
same,AUC0-24,[3]; [11],1710 ± 542 ng·h/mL
same,t1/2 (harmonic mean ± pseudo SD),[3]; [11],56.8 ± 19.2 h
same,AUC0-24,[3]; [12],2920 ± 693 ng·h/mL
same,t1/2 (harmonic mean ± pseudo SD),[3]; [12],75.1 ± 3.9 h
same,AUC0-24,[3]; [13],2230 ± 671 ng·h/mL
same,Cmax,[3]; [13],224 ± 92.0 ng/mL
same,Ctrough,[3]; [13],54.2 ± 15.3 ng/mL
same,t1/2 (harmonic mean ± pseudo SD),[3]; [13],88.4 ± 10.7 h
same,AUC0-24,[3]; [14],1280 ± 529 ng·h/mL
same,Cmax,[3]; [14],169 ± 80.9 ng/mL
same,Ctrough,[3]; [14],31.9 ± 11.5 ng/mL
same,t1/2 (harmonic mean ± pseudo SD),[3]; [14],79.7 ± 11.5 h
same,AUC0-24,[3]; [15],2285 ± 1140 ng·h/mL
same,Cmax,[3]; [15],305 ± 215 ng/mL
same,t1/2 (harmonic mean ± pseudo SD),[3]; [15],79.2 ± 9.2 h
same,Cmax,[3]; [16],246 ± 139 ng/mL
same,t1/2 (harmonic mean ± pseudo SD),[3]; [16],83.1 ± 17.2 h
same,AUC0-24,[3]; [17],2170 ± 452 ng·h/mL
same,Cmax,[3]; [17],293 ± 67.1 ng/mL
same,t1/2 (harmonic mean ± pseudo SD),"[3]; multiple dose 150 mg, middle-aged male, determined after 28 days of dosing",72.7 ± 16.1^d hr
same,AUC0-24,[3]; [18],4370 ± 618 ng·h/mL
same,Cmax,[3]; [18],631 ± 154 ng/mL
same,t1/2 (harmonic mean ± pseudo SD),[3]; [18],59.5 ± 1.9 h
same,AUC0-24,[3]; [19],3200 ± 1120 ng·h/mL
same,Cmax,[3]; [19],313 ± 168 ng/mL
same,t1/2 (harmonic mean ± pseudo SD),[3]; [19],64.7 ± 6.5 h
same,AUC0-24,[3]; [20],6980 ± 1040 ng·h/mL
same,t1/2 (harmonic mean ± pseudo SD),[3]; [20],61.7 ± 7.3 h
same,AUC0-24,[3]; [21],10500 ± 2140 ng·h/mL
same,Cmax,[3]; [21],1400 ± 257 ng/mL
same,t1/2 (harmonic mean ± pseudo SD),[3]; [21],58.9 ± 5.9 h
same,time to steady state concentrations,[3]; once daily dosing,≤ 7 days
same,higher exposures (AUC) in females compared with males,[3]; regardless of age,50%
same,Cmax increased in elderly Japanese vs elderly non-Japanese,[3]; steady state,82%
same,"AUC, mean ± SD",QTc interval [4],2430 ± 974 ng·h/mL
same,Maximum mean placebo corrected change from baseline RR interval,QTc interval [4],-84.36 ms
same,Maximum mean placebo corrected change from baseline diastolic BP,QTc interval [4],2.42 mmHg
same,Maximum mean placebo corrected change from baseline systolic BP,QTc interval [4],2.20 mmHg
same,QTcF LS mean difference from placebo,QTc interval [4]; 0.5 hour,2.90 ms
same,"QTcF change from baseline, LS mean",QTc interval [4]; 0.5 hour,1.90 ms
same,"QTcF change from baseline, LS mean",QTc interval [4]; 1 hour,4.87 ms
same,QTcF LS mean difference from placebo,QTc interval [4]; 1 hour (maximum),"4.98 (3.07, 6.88) msec and 4.98 msec"
same,QTcF LS mean difference from placebo,QTc interval [4]; 2 hour,2.14 ms
same,"QTcF change from baseline, LS mean",QTc interval [4]; 2 hour,2.06 ms
same,QTcF LS mean difference from placebo,QTc interval [4]; 3 hour,0.40 ms
same,"QTcF change from baseline, LS mean",QTc interval [4]; 3 hour,1.14 ms
same,QTcF LS mean difference from placebo,QTc interval [4]; 4 hour,-0.83 ms
same,"QTcF change from baseline, LS mean",QTc interval [4]; 4 hour,-0.40 ms
same,QTcF LS mean difference from placebo,QTc interval [4]; 6 hour,-1.26 ms

# From patent US20230218624A1 (Urovant Sciences GmbH, priority 2017, published 2023)
